In experiment [1] the target is Galectin-3 (Homo sapiens, UniProt P17931). Description: Evaluation of Kd Values. As to the method:
(§1) The affinity of Example 1-14 for galectins were determined by a fluorescence anisotropy assay where the compound was used as an inhibitor of the interaction between galectin and a fluorescein tagged saccharide probe as described S rme, P., Kahl-Knutsson, B., Huflejt, M., Nilsson, U. J., and Leffler H. (2004) Fluorescence polarization as an analytical tool to evaluate galectin-ligand interactions. Anal. Biochem. 334: 36-47, (Sarme et al., 2004) and Monovalent interactions of Galectin-1 By Salomonsson, Emma; Larumbe, Amaia; Tejler, Johan; Tullberg, Erik; Rydberg, Hanna; Sundin, Anders; Khabut, Areej; Frejd, Torbjorn; Lobsanov, Yuri D.; Rini, James M.; et al, From Biochemistry (2010), 49(44), 9518-9532, (Salomonsson et al., 2010).

Experiment [2] concerns the target Galectin-1 (Homo sapiens, UniProt P09382). Description: Evaluation of Kd Values. As to the method: as §1

Structures are written as SMILES.

Sequence of Galectin-3 (P17931 whole entry): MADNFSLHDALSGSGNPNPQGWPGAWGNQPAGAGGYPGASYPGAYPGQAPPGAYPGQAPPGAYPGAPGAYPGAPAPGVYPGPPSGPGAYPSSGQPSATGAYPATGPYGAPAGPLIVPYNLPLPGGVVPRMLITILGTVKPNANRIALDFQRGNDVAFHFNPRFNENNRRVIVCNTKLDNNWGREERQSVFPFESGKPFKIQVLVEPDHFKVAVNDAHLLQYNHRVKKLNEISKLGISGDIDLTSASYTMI
Sequence of Galectin-1 (P09382 whole entry): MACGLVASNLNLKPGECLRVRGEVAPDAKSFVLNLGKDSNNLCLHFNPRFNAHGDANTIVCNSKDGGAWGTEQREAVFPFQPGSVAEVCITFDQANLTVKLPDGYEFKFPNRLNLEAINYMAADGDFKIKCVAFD

As for `OCC1O[C@@H](S[C@@H]2O[C@H](CO)C(O)C(n3cc(-c4cc(F)c(F)c(F)c4)cn3)[C@H]2O)C(O)[C@@H](n2cc(-c3cc(F)c(F)c(F)c3)cn2)[C@H]1O` (some centres undefined) [US20240059728, Example 5], the Kd – broadly, the equilibrium constant for the complex coming apart – in experiment [1] was determined as 6 nM; in experiment [2], 890 nM.
For the compound `OCC1O[C@@H](S[C@@H]2O[C@H](CO)C(O)C(n3cc(-c4cccc(F)c4)cn3)[C@H]2O)C(O)[C@@H](n2cc(-c3cccc(F)c3)cn2)[C@H]1O` (some centres undefined) [US20240059728, Example 4], the Kd was less than 10 nM in experiment [1] and 780 nM in experiment [2].

(Values after BindingDB's records for patent US20240059728 (Galecto Biotech, 2024).)
